From patent US12022844B2, “Nutritional composition, food/drink composition using nutritional composition, and modified milk powder using nutritional composition” (priority 2018, dated 2024)

Key:
[1] = test system: Bifidobacterium peseudocatenulatum ATCC27919; experiment: Single bacterial culturing with HMO as sugar source, OD650; type: cell-based, Bifidobacterium pseudocatenulatum; conditions: ATCC 27919^T, sugar source 2%, 8 h, Table 6
Protocol: (§1) A10% solution of glucose (manufactured by Nakarai Tesque Inc.), and 2′-FL ((≥95%) Funakoshi, available from sigma), and LNnT (manufactured by ELICITYL) as examples of HMOs was prepared with ion exchanged water, and was subjected to sterile filtration using Millex-GV (SLGV033RS).
Lactobacilli MRS Broth (BD) (0.05% L-Cysteine Hydrochloride for Bacteria of the genus Bifidobacterium) was added to strains of Table 1 below (bacteria belonging to Bifidobacterium bifidum) and Table 2 below. After a sterilization treatment, 3% of the bacterial solution was inoculated, and anaerobically cultured (pre-pre cultured) at 37° C. for 16 h. […]
OD650 was measured from each well in the plates in the above (4) and the above (5) before (0 h) culturing and after (8 h) culturing, by MICROPLATE READER SH-9000 (manufactured by CORONA ELECTRIC). […] After the DNA extraction, the number of proliferating bacteria of Bifidobacteria/lactobacilli was analyzed by using the bacterial species-specific primer noted in Table 4, by a quantitative PCR method (see “Structural analysis of intestinal flora”—analysis of bacterial flora in human feces using quantitative PCR—by Kouichi Watanabe, Enterobacteriological journal, 20:35-42, 2006).
Regarding strains in Table 2, each strain was cultured as a single bacterium by 2′-FL or LNnT (HMOs) as a sugar source, and OD650 was measured. […]

[2] = test system: Bifidobacterium breve ATCC15700; experiment: as above; type: cell-based; conditions: sugar source 2%, 8 h, Table 6
Protocol: as §1
(§2) Lactobacilli MRS Broth (BD) (0.05% L-Cysteine Hydrochloride for Bacteria of the genus Bifidobacterium) was added to strains of Table 1 below (bacteria belonging to Bifidobacterium bifidum) and Table 2 below. After a sterilization treatment, 3% of the bacterial solution was inoculated, and anaerobically cultured (pre-pre cultured) at 37° C. for 16 h.
(§3) The following day, 1% glucose was added to a modified BL agar medium (“Studies on Bifidobacteria” by Tomotari Mitsuoka, p. 306, Japan Bifidus Foundation, issued in 1994) noted in Table 3, for preparation. After a sterilization treatment, 3% of the pre-pre cultured bacterial solution was inoculated, and anaerobically pre-cultured (pre-cultured) at 37° C. for 12 h.
(§4) The pre-cultured bacterial solution was collected and washed once with a sterile physiological saline solution. Then, mass-up was performed to an equal volume with the modified BL agar medium (“Studies on Bifidobacteria” by Tomotari Mitsuoka, p. 306, Japan Bifidus Foundation, issued in 1994) noted in Table 3 to prepare a suspended bacterial solution.
(§5) The modified BL agar medium (“Studies on Bifidobacteria” by Tomotari Mitsuoka, p. 306, Japan Bifidus Foundation, issued in 1994) noted in Table 3 was prepared at a capacity of 60%, and was subjected to an autoclave sterilization treatment. Then, 40% of each sugar solution prepared in (1) was aseptically added so as to prepare a medium with a sugar concentration of 4%.
(§6) The medium prepared in the above (3) was dispensed at a capacity that is half the capacity for culturing in a 96-well plate, and the bacterial solution prepared in the above (2) was dispensed at a remaining half capacity such that the bacterial solution had 6%. Then, a final sugar concentration was set to 2%. The plate into which the bacterial solution was dispensed was anaerobically cultured at 37° C. for 8 h.
(§7) OD650 was measured from each well in the plates in the above (4) and the above (5) before (0 h) culturing and after (8 h) culturing, by MICROPLATE READER SH-9000 (manufactured by CORONA ELECTRIC). After turbidity measurement, microbial cells were collected, and DNA extraction was performed. After the DNA extraction, the number of proliferating bacteria of Bifidobacteria/lactobacilli was analyzed by using the bacterial species-specific primer noted in Table 4, by a quantitative PCR method (see “Structural analysis of intestinal flora”—analysis of bacterial flora in human feces using quantitative PCR—by Kouichi Watanabe, Enterobacteriological journal, 20:35-42, 2006).
(§8) Regarding strains in Table 2, each strain was cultured as a single bacterium by 2′-FL or LNnT (HMOs) as a sugar source, and OD650 was measured. The results for 2′-FL are noted in Table 6 below, and the results for LNnT are noted in Table 7 below.

[3] = test system: Bifidobacterium longum subsp longum ATCC15707; experiment: as above; type: cell-based; conditions: ATCC 15707^T, sugar source 2%, 8 h, Table 6
Protocol: as §1, §2, §3, §4, §5, §6, §7, §8

[4] = test system: Lactobacillus plantarum ATCC14917; experiment: as above; type: cell-based; conditions: ATCC 14917^T, sugar source 2%, 8 h, Table 6
Protocol: as §1, §2, §3, §4, §5, §6, §7, §8

[5] = test system: Bifidobacterium adolescentis ATCC15703; experiment: as above; type: cell-based; conditions: ATCC 15703^T, sugar source 2%, 8 h, Table 6
Protocol: as §1, §2, §3, §4, §5, §6, §7, §8

[6] = test system: Bifidobacterium pseudolongum ATCC25526; experiment: as above; type: cell-based; conditions: ATCC 25526^T, sugar source 2%, 8 h, Table 6
Protocol: as §1, §2, §3, §4, §5, §6, §7, §8

[7] = test system: Lactobacillus rhamnosus ATCC7469; experiment: as above; type: cell-based; conditions: ATCC 7469^T, sugar source 2%, 8 h, Table 6
Protocol: as §1, §2, §3, §4, §5, §6, §7, §8

[8] = test system: Bifidobacterium longum subsp infantis ATCC15697; experiment: as above; type: cell-based; conditions: ATCC 156971, sugar source 2%, 8 h, Table 6
Protocol: as §1, §2, §3, §4, §5, §6, §7, §8

[9] = test system: Bifidobacterium animalis subsp lactis DSM10140; experiment: as above; type: cell-based; conditions: DSM 101407, sugar source 2%, 8 h, Table 6
Protocol: as §1, §2, §3, §4, §5, §6, §7, §8

[10] = test system: Lactobacillus gasseri ATCC33323; experiment: as above; type: cell-based; conditions: ATCC 33323^T, sugar source 2%, 8 h, Table 6
Protocol: as §1, §2, §3, §4, §5, §6, §7, §8

[11] = test system: Bifidobacterium longum subspecies longum BB536; experiment: Mix-culturing with Bifidobacterium bifidum by HMO as sugar source, quantitative PCR; type: cell-based; conditions: for Proliferation rate (number of bacteria after mix-culturing for 8 h/number of bacteria after single bacterial culturing): BB536 mix-cultured with Bifidobacterium bifidum (NITE BP-02429), sugar source 2%, Table 8; for Proliferation rate of BB536 (mix-cultured bacteria after 8 h/single bacterial culturing 8 h): Table 9; for proliferation of BB536 through mix-culturing with bacteria belonging to Bifidobacterium bifidum: summary of Table 9
Protocol: as §1, §2, §3, §4, §5
The medium prepared in the above (3) was dispensed at a capacity that is half the capacity for aseptic culturing in a 96-well plate, and each of the bacterial solutions of strains of bacteria belonging to Bifidobacterium bifidum in Table 1 and probiotics having a low ability to assimilate human milk oligosaccharides in Table 2, which was prepared in the above (2), was dispensed at a remaining […] capacity into the medium prepared in the above (3) such that the bacterial solution had 12%. Then, a final sugar concentration was set to 2%. The plate into which the bacterial solution was dispensed was anaerobically cultured at 37° C. for 8 h.
as §7
It was decided to culture Bifidobacterium bifidum (NITE BP-02429) in which availability of 2′-FL or LNnT was found as described above, in combination with strains in Table 2, which cannot use 2′-FL or LNnT. Bifidobacterium bifidum (NITE BP-02429) and the strains in Table 2, which cannot use 2′-FL or LNnT, were mix-cultured by 2′-FL or LNnT as a sugar source, and after culturing for 8 h, the proliferation rate of the number of bacteria of each strain (proliferation rate=the number of bacteria after mix-culturing for 8 h/the number of bacteria after single bacterial culturing) was measured by a quantitative PCR method using each strain-specific oligonucleotide primer noted in Table 4, for the strain in Table 2.
Seven strains of Bifidobacterium bifidum in Table 1 and Bifidobacterium longum subspecies longum BB536 which cannot use 2′-FL or LNnT were mix-cultured by 2′-FL or LNnT as a sugar source. […]

[12] = test system: Bifidobacterium animalis subsp lactis MCC-525; experiment: Single bacterial culturing with HMO as sugar source, OD650; type: cell-based; conditions: sugar source 2%, 8 h, Table 7
Protocol: as §1, §2, §3, §4, §5, §6, §7, §8

[13] = test system: Bifidobacterium longum subsp longum BB536; experiment: as above; type: cell-based; conditions: sugar source 2%, 8 h, Table 7
Protocol: as §1, §2, §3, §4, §5, §6, §7, §8

[14] = mix-cultured with Bifidobacterium bifidum ATCC 29521^T
[15] = mix-cultured with Bifidobacterium bifidum NITE BP-1252
[16] = mix-cultured with Bifidobacterium bifidum NITE BP-02429
[17] = mix-cultured with Bifidobacterium bifidum NITE BP-02431
[18] = mix-cultured with Bifidobacterium bifidum NITE BP-02432
[19] = mix-cultured with Bifidobacterium bifidum NITE BP-02433
[20] = mix-cultured with Bifidobacterium bifidum NITE P-02648

Compound	Proliferation rate (number of bacteria after mix-culturing for 8 h/number of bacteria after single bacterial culturing) [11]	Proliferation rate of BB536 (mix-cultured bacteria after 8 h/single bacterial culturing 8 h) [11, 14]	Proliferation rate of BB536 (mix-cultured bacteria after 8 h/single bacterial culturing 8 h) [11, 15]	Proliferation rate of BB536 (mix-cultured bacteria after 8 h/single bacterial culturing 8 h) [11, 16]	Proliferation rate of BB536 (mix-cultured bacteria after 8 h/single bacterial culturing 8 h) [11, 17]	Proliferation rate of BB536 (mix-cultured bacteria after 8 h/single bacterial culturing 8 h) [11, 18]	Proliferation rate of BB536 (mix-cultured bacteria after 8 h/single bacterial culturing 8 h) [11, 19]	Proliferation rate of BB536 (mix-cultured bacteria after 8 h/single bacterial culturing 8 h) [11, 20]	proliferation of BB536 through mix-culturing with bacteria belonging to Bifidobacterium bifidum [11]	further results
2′-fucosyllactose [2′-FL]	4.30	1.35	3.17	4.13	6.33	3.16	5.90	9.97	proliferates	OD650 increase value [1]: 0.02; OD650 increase value [2]: 0.041; OD650 increase value [3]: 0.029; OD650 increase value [4]: 0.013; OD650 increase value [5]: −0.01; OD650 increase value [6]: 0.022; OD650 increase value [7]: 0.058; OD650 increase value [8]: 0.344; OD650 increase value [9]: 0.027; OD650 increase value [10]: −0.017
CC(=O)N[C@H]1[C@H](O[C@H]2[C@@H](O)[C@@H](CO)O[C@@H](O[C@H]3[C@H](O)[C@@H](O)C(O)O[C@@H]3CO)[C@@H]2O)O[C@H](CO)[C@@H](O[C@@H]2O[C@H](CO)[C@H](O)[C@H](O)[C@H]2O)[C@@H]1O (mixture of isomers) [LNnT, lacto-N-neotetraose]	2.13	1.07	1.64	3.57	3.02	1.51	3.08	4.95	proliferates	OD650 increase value [12]: 0.096; OD650 increase value [13]: 0.053
